Biological target: T1, CYP11A1 (Homo sapiens, UniProt P05108)
T1 construct: human H295R adrenocortical carcinoma cell line was used as source of enzyme; endogenous in cells; host or cells: H295R human adrenocortical carcinoma cells
T1 sequence (P05108 40-521): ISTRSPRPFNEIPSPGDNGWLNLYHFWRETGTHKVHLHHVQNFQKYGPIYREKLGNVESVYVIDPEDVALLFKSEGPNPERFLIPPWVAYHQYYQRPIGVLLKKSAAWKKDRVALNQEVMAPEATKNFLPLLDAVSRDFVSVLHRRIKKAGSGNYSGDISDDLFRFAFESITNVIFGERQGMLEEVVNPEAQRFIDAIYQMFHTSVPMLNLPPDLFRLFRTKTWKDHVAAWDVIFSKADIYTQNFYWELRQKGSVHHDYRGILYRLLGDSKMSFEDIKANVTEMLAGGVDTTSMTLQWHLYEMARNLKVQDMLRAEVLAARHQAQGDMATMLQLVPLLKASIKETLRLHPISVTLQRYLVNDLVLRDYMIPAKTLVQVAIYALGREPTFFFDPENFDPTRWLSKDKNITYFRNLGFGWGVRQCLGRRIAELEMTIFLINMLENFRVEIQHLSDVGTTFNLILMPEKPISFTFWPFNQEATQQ
Test: CYP11A1 inhibition: modified isocaproic acid release assay (IARA) in H295R cells
Assay type: cell-based
Conditions: human H295R adrenocortical carcinoma cells treated three days, 3 nM [24,25-3H]-labelled cholesterol, 1% DMSO, 10 concentrations in duplicates; read-out: IC50 of the test compounds on CYP11A1 inhibition
How it was run: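 Cholesterol side-chain cleavage followed as tritiated isocaproic acid in charcoal-extracted medium, counted by scintillation. Substrate was 3 nM [24,25-3H]-cholesterol on human H295R cells exposed for three days to ten compound concentrations (duplicates, 1% DMSO); IC50 derived.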

Row | IC50 | Compound
1 | 0.15 to 0.3 µM | CS(=O)(=O)C1CCC(COc2coc(CN3Cc4ccccc4C3)cc2=O)CC1 (stereo not drawn) [Compound 220, 2-(Isoindolin-2-ylmethyl)-5-((4-(methylsulfonyl)cyclohexyl)methoxy)-4H-pyran-4-one]
2 | < 0.15 µM | CCCC(=O)N1CCC(COc2coc(CN3Cc4ccccc4C3)cc2=O)CC1 [Compound 221, 5-((1-Butyrylpiperidin-4-yl)methoxy)-2-(isoindolin-2-ylmethyl)-4H-pyran-4-one]
3 | < 0.15 µM | CC(F)(F)C(=O)N1CCC(COc2coc(CN3Cc4ccccc4C3)cc2=O)CC1 [Compound 222, 5-((1-(2,2-Difluoropropanoyl)piperidin-4-yl)methoxy)-2-(isoindolin-2-ylmethyl)-4H-pyran-4-one]
4 | 0.15 to 0.3 µM | CC(F)(F)C(=O)N1CCC(COc2coc(CN3Cc4ccc(F)cc4C3)cc2=O)CC1 [Compound 223, 5-((1-(2,2-Difluoropropanoyl)piperidin-4-yl)methoxy)-2-((5-fluoroisoindolin-2-yl)methyl)-4H-pyran-4-one]
5 | < 0.15 µM | CCC(=O)N1CCC(COc2coc(CN3Cc4ccc(F)cc4C3)cc2=O)CC1 [Compound 224, 2-((5-Fluoroisoindolin-2-yl)methyl)-5-((1-propionylpiperidin-4-yl)methoxy)-4H-pyran-4-one]
6 | < 0.15 µM | CN(C)S(=O)(=O)N1CCC(COc2coc(CN3Cc4ccccc4C3)cc2=O)CC1 [Compound 225, 4-(((6-(Isoindolin-2-ylmethyl)-4-oxo-4H-pyran-3-yl)oxy)methyl)-N,N-dimethyl-piperidine-1-sulfonamide]
7 | < 0.15 µM | O=C(C1CC1)N1CCC(COc2coc(CN3Cc4ccccc4C3)cc2=O)CC1 [Compound 226, 5-((1-(Cyclopropanecarbonyl)piperidin-4-yl)methoxy)-2-(isoindolin-2-ylmethyl)-4H-pyran-4-one]
8 | 0.15 to 0.3 µM | CNC(=O)C1CCC(COc2coc(CN3Cc4ccccc4C3)cc2=O)CC1 (stereo not drawn) [Compound 227, 4-(((6-(Isoindolin-2-ylmethyl)-4-oxo-4H-pyran-3-yl)oxy)methyl)-N-methylcyclo-hexanecarboxamide]
9 | 0.15 to 0.3 µM | CNC(=O)N1CCC(COc2coc(CN3Cc4ccccc4C3)cc2=O)CC1 [Compound 228, 4-(((6-(Isoindolin-2-ylmethyl)-4-oxo-4H-pyran-3-yl)oxy)methyl)-N-methyl-piperidine-1-carboxamide]
10 | < 0.15 µM | CC(C)NC(=O)N1CCC(COc2coc(CN3Cc4ccccc4C3)cc2=O)CC1 [Compound 229, 4-(((6-(Isoindolin-2-ylmethyl)-4-oxo-4H-pyran-3-yl)oxy)methyl)-N-isopropyl-piperidine-1-carboxamide]
11 | < 0.15 µM | CN(C)S(=O)(=O)N1CCC(COc2coc(CN3Cc4ccc(F)cc4C3)cc2=O)CC1 [Compound 230, 4-(((6-((5-Fluoroisoindolin-2-yl)methyl)-4-oxo-4H-pyran-3-yl)oxy)methyl)-N,N-dimethylpiperidine-1-sulfonamide]
12 | 0.15 to 0.3 µM | O=C(N1CCC1)N1CCC(COc2coc(CN3Cc4ccccc4C3)cc2=O)CC1 [Compound 231, 5-((1-(Azetidine-1-carbonyl)piperidin-4-yl)methoxy)-2-(isoindolin-2-ylmethyl)-4H-pyran-4-one]
13 | < 0.15 µM | O=C(N1CCOCC1)N1CCC(COc2coc(CN3Cc4ccccc4C3)cc2=O)CC1 [Compound 232, 2-(Isoindolin-2-ylmethyl)-5-((1-(morpholine-4-carbonyl)piperidin-4-yl)methoxy)-4H-pyran-4-one]
14 | 0.15 to 0.3 µM | O=c1cc(CN2Cc3ccccc3C2)occ1OCc1ccc(S(=O)(=O)C2COC2)cc1 [Compound 233, 2-(Isoindolin-2-ylmethyl)-5-((4-(oxetan-3-ylsulfonyl)benzyl)oxy)-4H-pyran-4-one]
15 | < 0.15 µM | O=C(C1CCC(COc2coc(CN3Cc4ccccc4C3)cc2=O)CC1)N1CCC1 (stereo not drawn) [Compound 234, 5-((4-(Azetidine-1-carbonyl)cyclohexyl)methoxy)-2-(isoindolin-2-ylmethyl)-4H-pyran-4-one]
16 | 0.15 to 0.3 µM | CS(=O)(=O)N1CCC(F)(COc2coc(CN3Cc4ccccc4C3)cc2=O)CC1 [Compound 235, 5-((4-Fluoro-1-(methylsulfonyl)piperidin-4-yl)methoxy)-2-(isoindolin-2-yl-methyl)-4H-pyran-4-one]
17 | 0.15 to 0.3 µM | CC(C)S(=O)(=O)N1CCC(F)(COc2coc(CN3Cc4ccccc4C3)cc2=O)CC1 [Compound 236, 5-((4-Fluoro-1-(isopropylsulfonyl)piperidin-4-yl)methoxy)-2-(isoindolin-2-ylmethyl)-4H-pyran-4-one]
18 | 0.15 to 0.3 µM | CS(=O)(=O)N1CCC(F)(COc2coc(CN3Cc4ccc(F)cc4C3)cc2=O)CC1 [Compound 237, 5-((4-Fluoro-1-(methylsulfonyl)piperidin-4-yl)methoxy)-2-((5-fluoroisoindolin-2-yl)methyl)-4H-pyran-4-one]
19 | < 0.15 µM | CS(=O)(=O)CC(=O)N1CCC(COc2coc(CN3Cc4ccccc4C3)cc2=O)CC1 [Compound 238, 2-(Isoindolin-2-ylmethyl)-5-((1-(2-(methylsulfonyl)acetyl)piperidin-4-yl)-methoxy)-4H-pyran-4-one]
20 | 0.15 to 0.3 µM | Cc1ccc(S(=O)(=O)N=S(C)(=O)C2CCC(COc3coc(CN4Cc5ccccc5C4)cc3=O)CC2)cc1 (stereo not drawn) [Compound 239, N-{[4-({[6-(1,3-Dihydro-2H-isoindol-2-ylmethyl)-4-oxo-4H-pyran-3-yl]oxy}-methyl)cyclohexyl](methyl)oxido-λ^6-sulfanylidene}-4-methylbenzenesulfonamide]
21 | 0.301 to 2 µM | CS(=N)(=O)C1CCC(COc2coc(CN3Cc4ccccc4C3)cc2=O)CC1 (stereo not drawn) [Compound 240, 2-(Isoindolin-2-ylmethyl)-5-((4-(S-methylsulfonimidoyl)cyclohexyl)methoxy)-4H-pyran-4-one]
22 | 0.15 to 0.3 µM | CS(=O)(=O)N1CCC(COc2coc(CN3Cc4ccc(Cl)cc4C3)cc2=O)CC1 [Compound 241, 2-((5-Chloroisoindolin-2-yl)methyl)-5-((1-(methylsulfonyl)piperidin-4-yl)-methoxy)-4H-pyran-4-one]
23 | 0.301 to 2 µM | N=S1(=O)CCC(COc2coc(CN3Cc4ccccc4C3)cc2=O)CC1 (stereo not drawn) [Compound 242, 5-((1-Imino-1-oxidohexahydro-1λ^6-thiopyran-4-yl)methoxy)-2-(isoindolin-2-ylmethyl)-4H-pyran-4-one]
24 | 0.301 to 2 µM | CC(=O)N=S1(=O)CCC(COc2coc(CN3Cc4ccccc4C3)cc2=O)CC1 (stereo not drawn) [Compound 243, N-(4-(((6-(Isoindolin-2-ylmethyl)-4-oxo-4H-pyran-3-yl)oxy)methyl)-1-oxido-tetrahydro-2H-1λ^6-thiopyran-1-ylidene)acetamide]
25 | < 0.15 µM | CC(=O)[C@H]1CC[C@H](COc2coc(CN3Cc4ccccc4C3)cc2=O)CC1 [Compound 244, 5-(((1r,4r)-4-Acetylcyclohexyl)methoxy)-2-(isoindolin-2-ylmethyl)-4H-pyran-4-one]
26 | < 0.15 µM | CCC(=O)N1CCC(COc2coc(CN3Cc4ccc(C(F)(F)F)cc4C3)cc2=O)CC1 [Compound 244a, 5-((1-Propionylpiperidin-4-yl)methoxy)-2-((5-(trifluoromethyl)isoindolin-2-yl)methyl)-4H-pyran-4-one]
27 | 0.301 to 2 µM | CS(=O)(=O)N1CCC(COc2coc(CN3Cc4ccc(F)c(F)c4C3)cc2=O)CC1 [Compound 245, 2-((4,5-Difluoroisoindolin-2-yl)methyl)-5-((1-(methylsulfonyl)piperidin-4-yl)methoxy)-4H-pyran-4-one]

— US11098032B2, “Pyran dervatives as CYP11A1 (cytochrome P450 monooxygenase 11A1) inhibitors” (ORION CORPORATION, priority 2016, dated 2021)
